SMILES strings stand for the structures.

The first test deals with HL-60. Description: Cytotoxicity against human HL60 cells assessed as reduction in cell viability. It is filed as functional, cell-based.
Conditions: not given
Regarding `CC1COc2c(N3CCN(C)CC3)c(F)cc3c(=O)c(-c4nn5c(-c6cn(C7CC7)c7cc(N8CCNCC8)c(F)cc7c6=O)nnc5s4)cn1c23` (stereo not drawn), the concentration for half-maximal inhibition (IC50) (commonly the concentration at which inhibition is half-maximal) fell in the range of 14.2 to 23.7 µM.

Regarding `CCN1CCN(c2cc3c(cc2F)c(=O)c(-c2nnc4sc(-c5cn6c7c(c(N8CCN(C)CC8)c(F)cc7c5=O)OCC6C)nn24)cn3C2CC2)CC1` (stereo not drawn), the 50% inhibitory concentration (IC50) was 14.2 to 23.7 µM.

With `CCN1CCN(c2cc3c(cc2F)c(=O)c(-c2nn4c(-c5cn(C6CC6)c6cc(N7CCN(CC)CC7)c(F)cc6c5=O)nnc4s2)cn3C2CC2)CC1`, the IC50 was in the range of 0.12 to 5.2 µM.

In the case of `CCN1CCN(c2cc3c(cc2F)c(=O)c(-c2nnc4sc(-c5cn6c7c(c(N8CCN(C)CC8)c(F)cc7c5=O)OC[C@@H]6C)nn24)cn3C2CC2)CC1`, the half-maximal inhibitory concentration (IC50) was in the range of 0.12 to 5.2 µM.

As for `CCN1CCN(c2cc3c(cc2F)c(=O)c(-c2nnc4sc(-c5cn(C6CC6)c6cc(N7CCN(C)CC7)c(F)cc6c5=O)nn24)cn3C2CC2)CC1`, the IC50 was 0.12 to 5.2 µM.

As for `O=c1c(-c2nn3c(-c4cn(C5CC5)c5cc(N6CCNCC6)c(F)cc5c4=O)nnc3s2)cn(C2CC2)c2cc(N3CCNCC3)c(F)cc12`, the 50% inhibitory concentration (IC50) lay within 0.12 to 5.2 µM.

As for `CC1COc2c(N3CCN(C)CC3)c(F)cc3c(=O)c(-c4nnc(-c5cn(C6CC6)c6cc(N7CCN(C)CC7)c(F)cc6c5=O)o4)cn1c23` (stereo not drawn), the IC50 lay in the range of 0.26 to 14.5 µM.

Regarding `CN1CCN(c2cc3c(cc2F)c(=O)c(-c2nnc4sc(-c5cn(C6CC6)c6nc(N7CCN(C)CC7)c(F)cc6c5=O)nn24)cn3C2CC2)CC1`, the IC50 lay in the range of 0.12 to 5.2 µM.

For another test, the system named is L1210. Description: Cytotoxicity against mouse L1210 cells assessed as reduction in cell viability. The format is functional, cell-based.
Conditions: not given
As for `CC1COc2c(N3CCN(C)CC3)c(F)cc3c(=O)c(-c4nn5c(-c6cn(C7CC7)c7cc(N8CCNCC8)c(F)cc7c6=O)nnc5s4)cn1c23` (stereo not drawn), the 50% inhibitory concentration (IC50) fell in the range of 14.2 to 23.7 µM.

Take `CCN1CCN(c2cc3c(cc2F)c(=O)c(-c2nnc4sc(-c5cn6c7c(c(N8CCN(C)CC8)c(F)cc7c5=O)OCC6C)nn24)cn3C2CC2)CC1` (stereo not drawn): the half-inhibitory concentration (IC50) fell in the range of 14.2 to 23.7 µM.

As for `CCN1CCN(c2cc3c(cc2F)c(=O)c(-c2nn4c(-c5cn(C6CC6)c6cc(N7CCN(CC)CC7)c(F)cc6c5=O)nnc4s2)cn3C2CC2)CC1`, the half-maximal inhibitory concentration (IC50) lay within 0.12 to 5.2 µM.

As to `CCN1CCN(c2cc3c(cc2F)c(=O)c(-c2nnc4sc(-c5cn6c7c(c(N8CCN(C)CC8)c(F)cc7c5=O)OC[C@@H]6C)nn24)cn3C2CC2)CC1`, the 50% inhibitory concentration (IC50) lay within 0.12 to 5.2 µM.

For `CCN1CCN(c2cc3c(cc2F)c(=O)c(-c2nnc4sc(-c5cn(C6CC6)c6cc(N7CCN(C)CC7)c(F)cc6c5=O)nn24)cn3C2CC2)CC1`, the 50% inhibitory concentration (IC50) is 0.12 to 5.2 µM.

For `O=c1c(-c2nn3c(-c4cn(C5CC5)c5cc(N6CCNCC6)c(F)cc5c4=O)nnc3s2)cn(C2CC2)c2cc(N3CCNCC3)c(F)cc12`, the IC50 was in the range of 0.12 to 5.2 µM.

`CC1COc2c(N3CCN(C)CC3)c(F)cc3c(=O)c(-c4nnc(-c5cn(C6CC6)c6cc(N7CCN(C)CC7)c(F)cc6c5=O)o4)cn1c23` (stereo not drawn): the IC50 is 0.26 to 14.5 µM.

On to `CN1CCN(c2cc3c(cc2F)c(=O)c(-c2nnc4sc(-c5cn(C6CC6)c6nc(N7CCN(C)CC7)c(F)cc6c5=O)nn24)cn3C2CC2)CC1`, for which the IC50 fell in the range of 0.12 to 5.2 µM.

For a further test, the system named is L1210. Description: Antiproliferative activity against mouse L1210 cells after 24 to 72 hrs by MTT assay. It is filed as functional, cell-based.
Conditions: not given
(Tetrazolium assays rely on reduction of a dye to a coloured formazan, in cell work by metabolically active cells.)
As for `CCn1cc(C(=O)N/N=C/c2ccc(OC)cc2)c(=O)c2cc(F)c(N3CCNCC3)cc21`, the IC50 lay within 1.4 to 52.3 µM.

Another test deals with CHO. Put plainly: Cytotoxicity against CHO cells assessed as reduction in cell viability. It is filed as functional, cell-based. Conditions: Cricetulus griseus.
`CC1COc2c(N3CCN(C)CC3)c(F)cc3c(=O)c(-c4nn5c(-c6cn(C7CC7)c7cc(N8CCNCC8)c(F)cc7c6=O)nnc5s4)cn1c23` (stereo not drawn): the IC50 is 14.2 to 23.7 µM.

On to `CCN1CCN(c2cc3c(cc2F)c(=O)c(-c2nnc4sc(-c5cn6c7c(c(N8CCN(C)CC8)c(F)cc7c5=O)OCC6C)nn24)cn3C2CC2)CC1` (stereo not drawn), for which the IC50 was 14.2 to 23.7 µM.

For `CCN1CCN(c2cc3c(cc2F)c(=O)c(-c2nn4c(-c5cn(C6CC6)c6cc(N7CCN(CC)CC7)c(F)cc6c5=O)nnc4s2)cn3C2CC2)CC1`, the IC50 lay in the range of 0.12 to 5.2 µM.

For the compound `CCN1CCN(c2cc3c(cc2F)c(=O)c(-c2nnc4sc(-c5cn6c7c(c(N8CCN(C)CC8)c(F)cc7c5=O)OC[C@@H]6C)nn24)cn3C2CC2)CC1`, the IC50 is 0.12 to 5.2 µM.

On to `CCN1CCN(c2cc3c(cc2F)c(=O)c(-c2nnc4sc(-c5cn(C6CC6)c6cc(N7CCN(C)CC7)c(F)cc6c5=O)nn24)cn3C2CC2)CC1`, for which the IC50 is 0.12 to 5.2 µM.

On to `O=c1c(-c2nn3c(-c4cn(C5CC5)c5cc(N6CCNCC6)c(F)cc5c4=O)nnc3s2)cn(C2CC2)c2cc(N3CCNCC3)c(F)cc12`, for which the IC50 lay in the range of 0.12 to 5.2 µM.

Regarding `CC1COc2c(N3CCN(C)CC3)c(F)cc3c(=O)c(-c4nnc(-c5cn(C6CC6)c6cc(N7CCN(C)CC7)c(F)cc6c5=O)o4)cn1c23` (stereo not drawn), the IC50 fell in the range of 0.26 to 14.5 µM.

Turning to `CN1CCN(c2cc3c(cc2F)c(=O)c(-c2nnc4sc(-c5cn(C6CC6)c6nc(N7CCN(C)CC7)c(F)cc6c5=O)nn24)cn3C2CC2)CC1`, the half-maximal inhibitory concentration (IC50) lay in the range of 0.12 to 5.2 µM.

A further test deals with Hep 3B2. Description: Antiproliferative activity against human Hep3B cells after 24 to 72 hrs by MTT assay. The format is functional, cell-based.
Conditions: not given
Compound `CCn1cc(C(=O)N/N=C/c2ccc(OC)cc2)c(=O)c2cc(F)c(N3CCNCC3)cc21` showed a half-inhibitory concentration (IC50) of 1.4 to 52.3 µM.

In another test the test system is SMMC-7721. Put plainly: Antiproliferative activity against human SMMC7721 cells after 24 to 72 hrs by MTT assay.
Conditions: not given
The format is functional, cell-based.
In turn, `CCn1cc(C(=O)N/N=C/c2ccc(OC)cc2)c(=O)c2cc(F)c(N3CCNCC3)cc21` came in with a concentration for half-maximal inhibition (IC50) of 1.4 to 52.3 µM.

Another test relates to HL-60. Description: Antiproliferative activity against human HL60 cells after 24 to 72 hrs by MTT assay. The format is functional, cell-based.
Conditions: not given
Compound `CCn1cc(C(=O)N/N=C/c2ccc(OC)cc2)c(=O)c2cc(F)c(N3CCNCC3)cc21` gave a half-maximal inhibitory concentration (IC50) of 1.4 to 52.3 µM.

(Values after ChEMBL document CHEMBL4613209, “Quinolone hybrids and their anti-cancer activities: An overview” (Eur J Med Chem, 2019).)
